Experimental data as given in EP1375483A1, “6-CHLORO-3-PYRIDYLMETHYLPROPYLAMINE DERIVATIVES, PREPARATION PROCESS THEREOF AND BACTERICIDES” (KUREHA KAGAKU KOGYO KABUSHIKI KAISHA, priority 2001, dated 2001).
Like-named read-outs stand apart in the source and are kept apart here.

What was measured:
Microdochium nivale = assay: Antifungal activity test against various pathogenic fungi, hypha extension on PDA plates (Test Example 3); format: cell-based; settings: read-out: Growth Inhibition M.n (3.2)
Venturia inaequalis = assay: as above; format: cell-based; settings: read-out: Growth Inhibition V.i (3.2)
Pyricularia oryzae = assay: microbe, parasite or virus in culture; format: cell-based; settings: read-out: Growth Inhibition P.o (12.5)
Septoria tritici = assay: Antifungal activity test against various pathogenic fungi, hypha extension on PDA plates (Test Example 3); format: cell-based; settings: Zymoseptoria tritici, read-out: Growth Inhibition S.t (100)
Leptosphaeria nodorum = assay: as above; format: cell-based; settings: Parastagonospora nodorum, read-out: Growth Inhibition L.n (0.8)
[1] = test system: Pseudocercosporella herpotrichoides; assay: as above; format: cell-based; settings: Oculimacula yallundae, read-out: Growth Inhibition P.h (25)
cucumber powdery mildew = assay: Test of control effect on cucumber powdery mildew (Test Example 2); format: in vivo; settings: wettable powder 100 mg/l, 100 liters/10 a, sprinkled on cucumbers (Sagamihanpakufushinari) before inoculation, examined 9th to 14th day after inoculation; for pest or weed control at 100 µg/mL: Cucumis sativus
Procedure: The wettable powders formulated by using each of the compounds I-1 to 27 according to the present invention and the comparative compounds (a) to (d), (m-1) and (m-3) were each diluted and suspended with water to a predetermined concentration (100 mg/l), the suspension was sprinkled over the first to the second leaf period cucumbers (variety: "[…]") cultivated by using a square plastic pot (size: 6. 4 cm x 6. 4 cm) in a rate of 100 liters/10 a (ares). After the sprinkled leaves were air-dried, the spores were inoculated over the leaves by sprinkling the same with a brush from an infected leaf, a disease was contracted in a glass house (temperature: 20 to 24°C, relative humidity: 20 to 70 RH). On the 9th to 14th day after the inoculation, the infection degree was examined according to the following scale and the control value of each compound was calculated by the following calculation equation 2: [table] (Equation 2) Control value = (1 - infection degree of treated zone/infection degree of untreated zone) x 100 (%) [formula] The control values of each compound are shown in Table 9.

Botrytis cinerea = assay: Antifungal activity test against various pathogenic fungi, hypha extension on PDA plates (Test Example 3); format: cell-based; settings: read-out: Growth Inhibition B.c (1.6)
wheat powdery mildew [2] = assay: Permeable mobility fungicidal effect test in leaf section of wheat powdery mildew (Test Example 4); format: in vivo
Procedure: In the test example 4, permeable mobility fungicidal effect test was performedon the leaf section of wheat powdery mildew with regard to the compounds I-1 to 27 according to the present invention and the comparative compounds (a) to (d), and (m-1) to (m-3) with the method described later. The compound in the form of a wettable powder obtained by Formulation 2 or the like was diluted and suspended with water to a predetermined concentration (200mg/l), and 0.5 µl of the suspension was applied to a 2 to 3 cm leaf portion from the root of the three leaves of the 4th to 4.5th leaf period wheat (variety: Abukumawase) cultured by using a square plastic pot (size: 6.4 cm x 6.4 cm). After these wheat leaves were subject to still standing in a glass house (temperature: 20 to 24C, relative humidity: 20 to 70 RH) for one day, the spores of wheat powdery mildew were inoculated over the leaves by sprinkling the same with a brush from an infected leaf, a disease was contracted in the same glass house. The length of a non-contracted area generated from the applied portion to the direction of the leaf top was measured, and a relative mobility to the compound (m-2) was calculated with the following calculation […] by using the comparative compound (m-2) as a standard compound. (Equation 4) Relative mobility = (Length of non-contracted area in each chemical section (cm)/Length of non-contracted area of compound (m-2) (cm)) [formula]

Rhynchosporium secalis = assay: Antifungal activity test against various pathogenic fungi, hypha extension on PDA plates (Test Example 3); format: cell-based; settings: read-out: Growth Inhibition R.s (100)
Pyrenophora graminea = assay: as above; format: cell-based; settings: read-out: Growth Inhibition P.g (12.5)
wheat powdery mildew [3] = assay: Test of control effect on wheat powdery mildew (Test Example 1); format: in vivo; settings: wettable powder 125 mg/l, 100 liters/10 a, sprinkled on wheat seedlings (Nourin 64) before inoculation, examined 9th to 14th day after inoculation; for pest or weed control at 125 µg/mL: Triticum aestivum
Procedure: Wettable powders were prepared from compounds of the present invention I-1 to I-27 and comparative compounds (a) to (d) , (m-1) and (m-3). The obtained wettable powder was diluted and suspended with water to provide the predetermined concentration (125 mg/l), and was sprinkled onto seedlings of wheat (variety: "Nourin 64") at the first to the second leaf period which were cultivated using square plastic pots (size: 6.4 cm x 6.4 cm) in a rate of 100 liters/10 a (ares). After drying the sprinkled leaves with air, a suspension of wheat powdery mildew spores taken from infected leaves was inoculated by spraying onto the sprinkled leaves. They were supervised in a green house (temperature: 20 to 24°C, relative humidity: 20 to 70 RH). On the 9th to 14th day after the inoculation, the infection degree was examined according to the following scale and the control value of each compound was calculated by the following calculation equation 1. [table] (Equation 1) Control value = (1 - infection degree of treated zone/infection degree of untreated zone) x 100 (%) [formula] The control values of each compound are shown in Table 8.

[4] = 3.2 ppm in PDA culture medium, cultured 1 to 7 days
[5] = Septoria tritici, 100 ppm in PDA culture medium, cultured 1 to 7 days
[6] = Leptosphaeria nodorum, 0.8 ppm in PDA culture medium, cultured 1 to 7 days
[7] = Pseudocercosporella herpotrichoides, 25 ppm in PDA culture medium, cultured 1 to 7 days
[8] = 1.6 ppm in PDA culture medium, cultured 1 to 7 days
[9] = length of non-contracted area relative to compound (m-2), 0.5 µl of 200 mg/l suspension applied to wheat leaf (Abukumawase), inoculated after one day
[10] = 100 ppm in PDA culture medium, cultured 1 to 7 days
[11] = 12.5 ppm in PDA culture medium, cultured 1 to 7 days

| Structure (SMILES) | inhibition at 3.2 ppm (Microdochium nivale; [4]) [%] | inhibition at 3.2 ppm (Venturia inaequalis; [4]) [%] | inhibition at 12.5 ppm (Pyricularia oryzae) [%] | inhibition at 100 ppm (Septoria tritici; [5]) [%] | inhibition at 0.8 ppm (Leptosphaeria nodorum; [6]) [%] | inhibition at 25 ppm [1, 7] [%] | pest or weed control at 100 µg/mL (cucumber powdery mildew) [%] | inhibition at 1.6 ppm (Botrytis cinerea; [8]) [%] | Relative Mobility (wheat powdery mildew [2]; [9]) | inhibition at 100 ppm (Rhynchosporium secalis; [10]) [%] | inhibition at 12.5 ppm (Pyrenophora graminea; [11]) [%] | pest or weed control at 125 µg/mL (wheat powdery mildew [3]) [%] | other results |
| --- | --- | --- | --- | --- | --- | --- | --- | --- | --- | --- | --- | --- | --- |
| CC(Cc1ccc(OC(F)(F)F)c(F)c1)CN(C)Cc1ccc(Cl)nc1 (stereo not drawn) [Compound I-17, 6-chloro-N-[3-(3-fluoro-4-trifluoromethoxyphenyl)-2-methylpropyl]-N-methyl-3-pyridylmethylamine] | > 90 | 70 to 90 | 70 to 90 | 70 to 90 | > 90 | > 90 | 100 | > 90 | 10 | > 90 | 70 to 90 | 100 |  |
| CC(Cc1cc(F)c(OC(F)(F)F)c(F)c1)CN(C)Cc1ccc(Cl)nc1 (stereo not drawn) [Compound I-20, 6-chloro-N-[3-(3,5-difluoro-4-trifluoromethoxyphenyl)-2-methylpropyl]-N-methyl-3-pyridylmethylamine] | 70 to 90 | 70 to 90 | 70 to 90 | 70 to 90 | > 90 | > 90 | 100 | > 90 | 9 | 70 to 90 | 70 to 90 | 100 |  |
| CC(Cc1cc(F)cc(Cl)c1)CN(C)Cc1ccc(Cl)nc1 (stereo not drawn) [Compound I-21, 6-chloro-N-[3-(3-chloro-5-fluorophenyl)-2-methylpropyl] -N-methyl-3-pyridylmethylamine] | 70 to 90 | 70 to 90 | 70 to 90 | 70 to 90 | > 90 | > 90 | 100 | > 90 | 9 | > 90 | > 90 | 100 |  |
| CC(Cc1ccc2c(c1)OC(F)(F)O2)CN(C)Cc1ccc(Cl)nc1 (stereo not drawn) [Compound I-24] |  |  | 70 to 90 |  |  |  |  |  |  |  |  |  | inhibition at 3.2 ppm (Microdochium nivale): 70 to 90%; inhibition at 3.2 ppm (Venturia inaequalis): 70 to 90%; inhibition at 100 ppm (Septoria tritici): 70 to 90%; inhibition at 0.8 ppm (Leptosphaeria nodorum): > 90%; inhibition at 25 ppm [1]: > 90%; Control Value (cucumber powdery mildew): 100%; inhibition at 1.6 ppm (Botrytis cinerea): 70 to 90%; Relative Mobility (wheat powdery mildew [2]; 24 h, 200 ug/mL): 6; inhibition at 100 ppm (Rhynchosporium secalis): > 90%; inhibition at 12.5 ppm (Pyrenophora graminea): > 90%; Control Value (wheat powdery mildew [3]): 100% |
